{"source": "patent US10760065B2", "about": "“Tuning microbial populations with programmable nucleases” (priority 2013, dated 2020)", "key": {"[1]": {"tested_on": "EMG2 Wild-Type", "assay": "microbe, parasite or virus in culture", "assay_type": "cell-based, E. coli", "details": "strain EMG2 Wild-Type, LB broth; for MIC: Escherichia coli, read-out: Minimum Inhibitory Concentration (MIC)", "experimental": "(§1) MICs were determined by broth microdilution using LB broth according to the CLSI guidelines (Clinical and Laboratory Standards Institute. Methods for Dilution Antimicrobial Susceptibility Tests for Bacteria That Grow Aerobically; Approved Standard—Seventh Edition. 64 (2006))."}, "[2]": {"tested_on": "EMG2 gyrAD87G", "assay": "MIC determination by broth microdilution", "assay_type": "cell-based, E. coli", "details": "strain EMG2 gyrAD87G, LB broth; for MIC: Escherichia coli, read-out: Minimum Inhibitory Concentration (MIC)", "experimental": "as §1"}, "[3]": {"tested_on": "EMG2 pNDM-1", "assay": "MIC determination by broth microdilution", "assay_type": "cell-based, E. coli", "details": "strain EMG2 pNDM-1, LB broth; for MIC: Escherichia coli, read-out: Minimum Inhibitory Concentration (MIC)", "experimental": "as §1"}, "[4]": {"tested_on": "EMG2 pSHV-18", "assay": "MIC determination by broth microdilution", "assay_type": "cell-based, E. coli", "details": "strain EMG2 pSHV-18, LB broth; for MIC: Escherichia coli, read-out: Minimum Inhibitory Concentration (MIC)", "experimental": "as §1"}, "[5]": {"tested_on": "EHEC", "assay": "Galleria mellonella infection model, survival", "assay_type": "in vivo", "details": "ΦRGNeae MOI ~30; chloramphenicol or carbenicillin 32 mg/kg; Log-rank p<0.05", "experimental": "Galleria mellonella larvae were injected with either PBS (uninfected) or approximately 4×10^5 colony forming units (CFU) of EHEC. […] Survival curves represent an aggregate of four independent experiments, each with 20 worms per treatment group (n=80). […] G. mellonella larvae (n=40) were injected with PBS or approximately 3×10^5 colony forming units (CFU) of EHEC. Larvae were subsequently treated with PBS, ΦRGNeae at MOI ˜30, chloramphenicol, or carbenicillin. The antibiotics were both applied at a concentration of 32 mg/kg, corresponding to the CLSI resistance breakpoints for Enterobacteriaceae (32 μg/mL).\nLarvae of the model organism Galleria mellonella (Desbois, A. P. & Coote, P. J. Adv. Appl. Microbiol. 78, 25-53 (2012)) were purchased from Vanderhorst Wholesale, Inc. (St. Marys, Ohio, USA) and received in the final larval instar for survival assays. Larvae were removed from food source, allowed to acclimate for at least 24 h at room temperature in the dark, and used within 4 days of receipt. […] Larvae were incubated at 37° C. and survival was monitored at 12 hour intervals for 72 hours, with death indicated by lack of movement and unresponsiveness to touch (Desbois, A. P. & Coote, P. J. Adv. Appl. Microbiol. 78, 25-53 (2012)). Kaplan-Meier survival curves were generated on the data pooled from four independent experiments and analyzed with the log-rank test using GraphPad Prism."}, "[6]": {"tested_on": "EHEC strain", "assay": "Antibiotic susceptibility of the EHEC strain", "assay_type": "cell-based, E. coli"}}}
{"molecule": "CC1(C)S[C@@H]2[C@H](NC(=O)[C@H](N)c3ccccc3)C(=O)N2[C@H]1C(=O)O", "note": "[AMP, ampicillin]", "values": [{"measurement": "MIC", "setting": "[1]", "result": 2, "unit": "µg/mL"}, {"measurement": "MIC", "setting": "[2]", "result": 4, "unit": "µg/mL"}, {"measurement": "MIC", "setting": "[3]", "result": "> 64", "unit": "µg/mL"}, {"measurement": "MIC", "setting": "[4]", "result": 64, "unit": "µg/mL"}]}
{"molecule": "CC1(C)S[C@@H]2[C@H](NC(=O)C(C(=O)O)c3ccccc3)C(=O)N2[C@H]1C(=O)O", "note": "(stereo partly shown) [carbenicillin]", "values": [{"measurement": "survival of EHEC-infected larvae, comparison with antibiotics", "setting": "[5]", "result": "superior to ΦRGNeae treatment"}, {"measurement": "susceptibility of EHEC strain", "setting": "[6]", "result": "susceptible"}]}
{"molecule": "CC1COc2c(N3CCN(C)CC3)c(F)cc3c(=O)c(C(=O)O)cn1c23", "note": "(stereo not shown) [OFX, ofloxacin]", "values": [{"measurement": "MIC", "setting": "[1]", "result": 0.125, "unit": "µg/mL"}, {"measurement": "MIC", "setting": "[2]", "result": 0.5, "unit": "µg/mL"}]}
{"molecule": "O=C(N[C@H](CO)[C@H](O)c1ccc([N+](=O)[O-])cc1)C(Cl)Cl", "note": "[chloramphenicol]", "values": [{"measurement": "susceptibility of EHEC strain", "setting": "[6]", "result": "resistant"}]}
{"molecule": "C[C@@H](O)[C@H]1C(=O)N2C(C(=O)O)=C(SCCN=CN)C[C@H]12", "note": "[IPM, imipenem]", "values": [{"measurement": "MIC", "setting": "[1]", "result": 0.25, "unit": "µg/mL"}, {"measurement": "MIC", "setting": "[3]", "result": 32, "unit": "µg/mL"}]}
{"molecule": "CO/N=C(\\C(=O)N[C@@H]1C(=O)N2C(C(=O)O)=C(COC(C)=O)CS[C@H]12)c1csc(N)n1", "note": "[CTX, cefotaxime]", "values": [{"measurement": "MIC", "setting": "[1]", "result": "≤ 0.0625", "unit": "µg/mL"}, {"measurement": "MIC", "setting": "[2]", "result": "≤ 0.0625", "unit": "µg/mL"}, {"measurement": "MIC", "setting": "[3]", "result": "> 64", "unit": "µg/mL"}, {"measurement": "MIC", "setting": "[4]", "result": 0.25, "unit": "µg/mL"}]}
{"molecule": "CC(C)(O/N=C(\\C(=O)N[C@@H]1C(=O)N2C(C(=O)[O-])=C(C[n+]3ccccc3)CS[C@H]12)c1csc(N)n1)C(=O)O", "note": "[CAZ, ceftazidime]", "values": [{"measurement": "MIC", "setting": "[1]", "result": 0.25, "unit": "µg/mL"}, {"measurement": "MIC", "setting": "[3]", "result": "> 64", "unit": "µg/mL"}, {"measurement": "MIC", "setting": "[4]", "result": 1, "unit": "µg/mL"}]}
{"molecule": "gentamicin", "values": [{"measurement": "Minimum Inhibitory Concentration (MIC)", "setting": "[1]", "result": 4, "unit": "µg/mL"}, {"measurement": "Minimum Inhibitory Concentration (MIC)", "setting": "[2]", "result": 4, "unit": "µg/mL"}, {"measurement": "Minimum Inhibitory Concentration (MIC)", "setting": "[3]", "result": ">64", "unit": "µg/mL"}, {"measurement": "Minimum Inhibitory Concentration (MIC)", "setting": "[4]", "result": ">64", "unit": "µg/mL"}]}
